Assay in all cases: relative viability (nuclei count vs DMSO), 5 days (fraction); higher = more cells survive
Compound in the test “Carfilzomib + Dasatinib”: CC(C)C[C@H](NC(=O)[C@H](CCc1ccccc1)NC(=O)CN1CCOCC1)C(=O)N[C@@H](Cc1ccccc1)C(=O)N[C@@H](CC(C)C)C(=O)[C@@]1(C)CO1 [Carfilzomib] + Cc1nc(Nc2ncc(C(=O)Nc3c(C)cccc3Cl)s2)cc(N2CCN(CCO)CC2)n1 [Dasatinib] (partner 0.075 µM)
Put shortly:
(§1)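 Relative viability is defined as nuclei in treated wells over nuclei in vehicle wells. Duplicate plates were run and medians reported. Lung cancer cell lines in 1536-well plates were dosed by pin tool one day after seeding, with one drug or with a fixed anchor-drug dose plus five library-drug doses (not always all listed) in √10 steps, and nuclei were counted after 5 days.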

Compound in the test “Crizotinib + Bortezomib”: C[C@@H](Oc1cc(-c2cnn(C3CCNCC3)c2)cnc1N)c1c(Cl)ccc(F)c1Cl [Crizotinib] + CC(C)C[C@H](NC(=O)[C@H](Cc1ccccc1)NC(=O)c1cnccn1)B(O)O [Bortezomib] (partner 0.002 µM)
Put shortly: as §1

Compound in the test “Crizotinib + Olaparib”: C[C@@H](Oc1cc(-c2cnn(C3CCNCC3)c2)cnc1N)c1c(Cl)ccc(F)c1Cl [Crizotinib] + O=C(c1cc(Cc2n[nH]c(=O)c3ccccc23)ccc1F)N1CCN(C(=O)C2CC2)CC1 [Olaparib] (partner 8 µM)
An outline of the steps: as §1

Compound in the test “Olaparib + Pemetrexed”: O=C(c1cc(Cc2n[nH]c(=O)c3ccccc23)ccc1F)N1CCN(C(=O)C2CC2)CC1 [Olaparib] + Nc1nc2[nH]cc(CCc3ccc(C(=O)N[C@@H](CCC(=O)O)C(=O)O)cc3)c2c(=O)[nH]1 [Pemetrexed] (partner 0.2 µM)
Put shortly: as §1

Here are results for 5 cell lines from the supplement of paper PMC10307832.

For the cell line NCI-H1734, the relative viability in the test with Carfilzomib + Dasatinib (first compound 0.001 µM) amounted to 0.462; with Carfilzomib + Dasatinib (first compound 0.003162 µM) it was 0.503; with Carfilzomib + Dasatinib (first compound 0.01 µM), 0.487; in the test with Carfilzomib + Dasatinib (first compound 0.03162 µM) it was 0.2; in the test with Carfilzomib + Dasatinib (first compound 0.1 µM), 0.148; with Crizotinib + Bortezomib (first compound 0.01 µM), 1.01. Moreover, the relative viability worked out at 0.926 in the test with Crizotinib + Bortezomib (first compound 0.03162 µM); 0.87 with Crizotinib + Bortezomib (first compound 0.1 µM); 1.07 in the test with Crizotinib + Bortezomib (first compound 1 µM); 0.63 in the test with Crizotinib + Olaparib (first compound 0.01 µM); 0.574 in the test with Crizotinib + Olaparib (first compound 0.03162 µM); 0.624 with Crizotinib + Olaparib (first compound 0.1 µM). Also, the relative viability in the test with Crizotinib + Olaparib (first compound 1 µM) was 0.608; in the test with Olaparib + Pemetrexed (first compound 0.08 µM) it was 0.417; with Olaparib + Pemetrexed (first compound 0.253 µM), 0.398; with Olaparib + Pemetrexed (first compound 2.53 µM), 0.387; in the test with Olaparib + Pemetrexed (first compound 8 µM) it was 0.362.
With ChaGo-K-1, the relative viability with Carfilzomib + Dasatinib (first compound 0.001 µM) is 0.546; in the test with Carfilzomib + Dasatinib (first compound 0.003162 µM) it was 0.591; with Carfilzomib + Dasatinib (first compound 0.01 µM), 0.585; in the test with Carfilzomib + Dasatinib (first compound 0.03162 µM), 0.335; with Carfilzomib + Dasatinib (first compound 0.1 µM) it was 0.203; with Crizotinib + Bortezomib (first compound 0.01 µM) it was 0.947. In addition, the relative viability with Crizotinib + Bortezomib (first compound 0.1 µM) stood at 1.2; with Crizotinib + Bortezomib (first compound 1 µM), 0.96; with Crizotinib + Olaparib (first compound 0.01 µM), 0.422; with Crizotinib + Olaparib (first compound 0.03162 µM), 0.413; with Crizotinib + Olaparib (first compound 0.1 µM), 0.418; with Crizotinib + Olaparib (first compound 0.3162 µM), 0.297. Besides, the relative viability turned out to be 0.444 in the test with Crizotinib + Olaparib (first compound 1 µM); 0.266 with Olaparib + Pemetrexed (first compound 0.08 µM); 0.258 in the test with Olaparib + Pemetrexed (first compound 0.253 µM); 0.261 with Olaparib + Pemetrexed (first compound 2.53 µM); 0.256 in the test with Olaparib + Pemetrexed (first compound 8 µM).
Turning to NCI-H2405, the relative viability in the test with Carfilzomib + Dasatinib (first compound 0.003162 µM) is 0.218; with Carfilzomib + Dasatinib (first compound 0.01 µM), 0.203; in the test with Carfilzomib + Dasatinib (first compound 0.03162 µM), 0.247; with Carfilzomib + Dasatinib (first compound 0.1 µM), 0.188; with Crizotinib + Bortezomib (first compound 0.01 µM) it was 1; with Crizotinib + Bortezomib (first compound 0.03162 µM), 0.997. The relative viability with Crizotinib + Bortezomib (first compound 0.1 µM) turned out to be 1.04; with Crizotinib + Bortezomib (first compound 0.3162 µM), 1.09; with Crizotinib + Olaparib (first compound 0.01 µM), 0.794; with Crizotinib + Olaparib (first compound 0.03162 µM), 0.837; with Crizotinib + Olaparib (first compound 0.1 µM), 0.906; with Crizotinib + Olaparib (first compound 0.3162 µM), 0.751. In addition, the relative viability in the test with Crizotinib + Olaparib (first compound 1 µM) was found to be 0.901; in the test with Olaparib + Pemetrexed (first compound 0.08 µM), 1.02; in the test with Olaparib + Pemetrexed (first compound 0.253 µM), 0.931; in the test with Olaparib + Pemetrexed (first compound 2.53 µM) it was 1.02; with Olaparib + Pemetrexed (first compound 8 µM), 1.01.
SW 1573: the relative viability in the test with Carfilzomib + Dasatinib (first compound 0.001 µM) came to 0.653; with Carfilzomib + Dasatinib (first compound 0.003162 µM) it was 0.764; in the test with Carfilzomib + Dasatinib (first compound 0.01 µM), 0.372; with Carfilzomib + Dasatinib (first compound 0.03162 µM), 0.0426; in the test with Carfilzomib + Dasatinib (first compound 0.1 µM), 0.0643; in the test with Crizotinib + Bortezomib (first compound 0.03162 µM), 1.04. Also, the relative viability with Crizotinib + Bortezomib (first compound 0.1 µM) stood at 1.04; with Crizotinib + Bortezomib (first compound 0.3162 µM) it was 1.19; with Crizotinib + Bortezomib (first compound 1 µM), 0.836; with Crizotinib + Olaparib (first compound 0.01 µM), 0.44; with Crizotinib + Olaparib (first compound 0.03162 µM) it was 0.459; in the test with Crizotinib + Olaparib (first compound 0.1 µM), 0.542. The relative viability with Crizotinib + Olaparib (first compound 0.3162 µM) stood at 0.483; with Crizotinib + Olaparib (first compound 1 µM), 0.383; with Olaparib + Pemetrexed (first compound 0.08 µM) it was 0.903; with Olaparib + Pemetrexed (first compound 0.253 µM) it was 0.899; with Olaparib + Pemetrexed (first compound 2.53 µM), 0.779; with Olaparib + Pemetrexed (first compound 8 µM), 0.597.
As for A-427, the relative viability was determined as 0.776 in the test with Carfilzomib + Dasatinib (first compound 0.001 µM); 0.853 in the test with Carfilzomib + Dasatinib (first compound 0.003162 µM); 0.597 with Carfilzomib + Dasatinib (first compound 0.01 µM); 0.0935 with Carfilzomib + Dasatinib (first compound 0.03162 µM); 0.107 with Carfilzomib + Dasatinib (first compound 0.1 µM); 0.91 with Crizotinib + Bortezomib (first compound 0.01 µM). The relative viability came out at 1.03 with Crizotinib + Bortezomib (first compound 0.03162 µM); 0.953 in the test with Crizotinib + Bortezomib (first compound 0.1 µM); 0.999 in the test with Crizotinib + Bortezomib (first compound 1 µM); 0.745 with Crizotinib + Olaparib (first compound 0.01 µM); 0.777 with Crizotinib + Olaparib (first compound 0.03162 µM); 0.783 with Crizotinib + Olaparib (first compound 0.1 µM). For the same cell line, the relative viability with Crizotinib + Olaparib (first compound 1 µM) came to 0.623; with Olaparib + Pemetrexed (first compound 0.08 µM), 0.922; in the test with Olaparib + Pemetrexed (first compound 0.253 µM), 0.947; in the test with Olaparib + Pemetrexed (first compound 2.53 µM), 0.87; with Olaparib + Pemetrexed (first compound 8 µM), 0.73.
